{"source": "paper PMC10838150", "about": "(Toxicology in vitro : an international journal published in …, 2021)", "key": {"[1]": {"system": "MCF7", "assay": "Metabolic clearance", "conditions": "MCF7, 1 μM"}, "[2]": {"assay": "Metabolic clearance", "conditions": "human, MCF7 cells, Mean Half-life, MCF7, 1 μM, one-phase exponential decay"}, "[3]": {"system": "HepG2", "assay": "Metabolic clearance", "conditions": "HepG2, 1 μM"}, "[4]": {"assay": "Metabolic clearance", "conditions": "human, HepG2 cells, Mean Half-life, HepG2, 1 μM, one-phase exponential decay"}, "[5]": {"system": "50-donor pool PHHs", "assay": "Metabolic clearance", "conditions": "1 μM"}, "[6]": {"assay": "Metabolic clearance", "conditions": "human, Mean Half-life, 50-donor pool PHHs, one-phase exponential decay"}, "[7]": {"system": "HEK293", "assay": "Metabolic clearance", "conditions": "HEK293, 1 μM"}, "[8]": {"assay": "Metabolic clearance", "conditions": "human, HEK293 cells, Mean Half-life, HEK293, 1 μM, one-phase exponential decay"}, "[9]": {"system": "PHHs", "conditions": "150 minutes, 50 μM 7HC"}, "[10]": {"system": "HEK293"}, "[11]": {"system": "HepG2"}, "[12]": {"system": "MCF7"}, "[13]": {"system": "CYP1A2", "assay": "CYP450-Glo bioluminescent assay CYP1A2 in Tox21 cell lines", "type": "cell-based", "conditions": "24 hours pretreatment"}, "[14]": {"system": "HepG2", "conditions": "human, 1 μM"}, "[15]": {"system": "HEK293", "conditions": "human, 1 μM"}, "[16]": {"system": "MCF7", "conditions": "human, 1 μM"}, "[17]": {"system": "50-donor pool PHHs", "conditions": "human, 1 μM"}, "[18]": {"target": "T1, CYP2B6 (Homo sapiens, UniProt P20813)", "T1 sequence (P20813 1-491)": "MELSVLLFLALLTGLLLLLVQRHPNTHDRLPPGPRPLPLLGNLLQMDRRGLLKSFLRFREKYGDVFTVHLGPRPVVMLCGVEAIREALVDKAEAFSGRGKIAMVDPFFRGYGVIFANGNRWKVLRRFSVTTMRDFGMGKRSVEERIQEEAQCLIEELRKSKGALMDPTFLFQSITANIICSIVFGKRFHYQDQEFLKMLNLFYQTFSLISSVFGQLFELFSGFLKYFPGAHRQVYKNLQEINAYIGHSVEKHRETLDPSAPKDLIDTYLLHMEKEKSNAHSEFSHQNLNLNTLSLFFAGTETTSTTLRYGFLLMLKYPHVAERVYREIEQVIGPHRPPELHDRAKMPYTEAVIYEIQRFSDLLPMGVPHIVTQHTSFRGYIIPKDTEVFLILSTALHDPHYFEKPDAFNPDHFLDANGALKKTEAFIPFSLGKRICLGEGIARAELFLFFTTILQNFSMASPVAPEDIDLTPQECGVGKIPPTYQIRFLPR", "assay": "Hydroxybupropion formation from bupropion in HEK293", "type": "in vitro ADME", "conditions": "HEK293 cells"}, "[19]": {"target": "T1, CYP2B6", "assay": "Hydroxybupropion formation from bupropion in HepG2", "type": "in vitro ADME", "conditions": "HepG2 cells"}, "[20]": {"system": "CYP2B6", "assay": "Hydroxybupropion formation from bupropion in C3H10T1/2", "type": "in vitro ADME, mouse", "conditions": "C3H10T1/2, 24 h, Michaelis-Menten fit"}, "[21]": {"target": "T1, CYP2B6", "assay": "Hydroxybupropion formation from bupropion in HCT116", "type": "in vitro ADME", "conditions": "HCT116 cells"}, "[22]": {"system": "CYP3A4/5", "assay": "1-Hydroxymidazolam formation from midazolam in HepG2", "type": "in vitro ADME, human"}, "[23]": {"system": "CYP3A4/5", "assay": "1-Hydroxymidazolam formation from midazolam in PHH suspensions", "type": "in vitro ADME, human"}, "[24]": {"system": "CYP1A2", "assay": "Acetaminophen formation from phenacetin in HepG2", "type": "in vitro ADME, human"}, "[25]": {"system": "CYP1A2", "assay": "Acetaminophen formation from phenacetin in C3H10T1/2", "type": "in vitro ADME, mouse"}, "[26]": {"system": "sulfotransferase", "conditions": "ref Ishii and Tamura, 2003, cited from earlier work"}, "[27]": {"conditions": "HepG2, 24 h, Michaelis-Menten fit"}}, "note": "Read-outs that look alike come from different tables or passages of the source.", "data": [{"smiles": "O=c1ccc2ccc(O)cc2o1", "note": "[7HC, 7-hydroxycoumarin]", "values": [{"measurement": "Percent Depletion 240 min", "setting": "[1]", "value": 40, "unit": "%"}, {"measurement": "Mean Half-life", "setting": "[1]; one-phase exponential decay", "value": 4.875, "unit": "h"}, {"measurement": "half-life at 1 μM", "setting": "[2]", "value": "~4.83", "unit": "h"}, {"measurement": "Percent Depletion 240 min", "setting": "[3]", "value": 27, "unit": "%"}, {"measurement": "Mean Half-life", "setting": "[3]; one-phase exponential decay", "value": 4.843, "unit": "h"}, {"measurement": "half-life at 1 μM", "setting": "[4]", "value": "~4.83", "unit": "h"}, {"measurement": "Percent Depletion 240 min", "setting": "[5]", "value": 99, "unit": "%"}, {"measurement": "Mean Half-life", "setting": "[5]; one-phase exponential decay", "value": 0.378, "unit": "h"}, {"measurement": "half-life at 1 μM", "setting": "[6]", "value": "~0.383", "unit": "h"}, {"measurement": "Percent Depletion 240 min", "setting": "[7]", "value": 50, "unit": "%"}, {"measurement": "Percent Depletion 24 hour", "setting": "[7]", "value": 99, "unit": "%"}, {"measurement": "Mean Half-life", "setting": "[7]; one-phase exponential decay", "value": 3.498, "unit": "h"}, {"measurement": "half-life at 1 μM", "setting": "[8]", "value": "~3.5", "unit": "h"}]}, {"smiles": "O=C(O)[C@H]1O[C@@H](Oc2ccc3ccc(=O)oc3c2)[C@H](O)[C@@H](O)[C@@H]1O", "note": "[7HCG, 7-hydroxycoumarin glucuronide]", "values": [{"measurement": "Phase II Metabolite Formation Rate", "setting": "[9]", "value": "190 ± 41.8", "unit": "pmol/minute-million cells"}, {"measurement": "Phase II Metabolite Formation Rate", "setting": "[10]; HEK293, 150 minutes, 50 μM 7HC", "value": "-------------^1"}, {"measurement": "Phase II Metabolite Formation Rate", "setting": "[10]; HEK293, 24 hours, 50 μM 7HC", "value": "-------------^1"}, {"measurement": "Phase II Metabolite Formation Rate", "setting": "[11]; HepG2, 150 minutes, 50 μM 7HC", "value": "1.96 ± 0.887", "unit": "pmol/minute-million cells"}, {"measurement": "Phase II Metabolite Formation Rate", "setting": "[11]; HepG2, 24 hours, 50 μM 7HC", "value": "2.89 ± 0.563", "unit": "pmol/minute-million cells"}, {"measurement": "Phase II Metabolite Formation Rate", "setting": "[12]; MCF7, 150 minutes, 50 μM 7HC", "value": "1.34 ± 0.206", "unit": "pmol/minute-million cells"}, {"measurement": "Phase II Metabolite Formation Rate", "setting": "[12]; MCF7, 24 hours, 50 μM 7HC", "value": "0.809 ± 0.0457", "unit": "pmol/minute-million cells"}]}, {"smiles": "Nn1nnc2ccccc21", "note": "[ABT, aminobenzotriazole]", "values": [{"measurement": "inhibition of CYP1A2 luminescent metabolite formation", "setting": "[13]; ABT 1 mM, HepG2, MCF7, CHO-K1, C3H10T1/2, GH3TRE-Luc", "value": "only inhibited in CHO-K1 cells"}]}, {"smiles": "O=C(O)[C@H]1O[C@@H](Oc2ccc(C(c3ccc(O)cc3)(C(F)(F)F)C(F)(F)F)cc2)[C@H](O)[C@@H](O)[C@@H]1O", "note": "[BPAF G, bisphenol AF glucuronide]", "values": [{"measurement": "Phase II Metabolite Formation Rate", "setting": "[10]; HEK293, 150 minutes, 50 μM BPAF or BPS", "value": "-------------^1"}, {"measurement": "Phase II Metabolite Formation Rate", "setting": "[10]; HEK293, 24 hours, 50 μM BPAF or BPS", "value": "-------------^1"}, {"measurement": "Phase II Metabolite Formation Rate", "setting": "[11]; HepG2, 150 minutes, 50 μM BPAF or BPS", "value": "-------------^1"}, {"measurement": "Phase II Metabolite Formation Rate", "setting": "[12]; MCF7, 150 minutes, 50 μM BPAF or BPS", "value": "-------------^1"}, {"measurement": "Phase II Metabolite Formation Rate", "setting": "[12]; MCF7, 24 hours, 50 μM BPAF or BPS", "value": "-------------^1"}]}, {"smiles": "Oc1ccc(C(c2ccc(O)cc2)(C(F)(F)F)C(F)(F)F)cc1", "note": "[BPAF, bisphenol AF]", "values": [{"measurement": "Percent Depletion 240 min", "setting": "[14]; 240 min", "value": "36 ±/- 8.2%"}, {"measurement": "Percent Depletion 24 hour", "setting": "[14]; 24 h", "value": "66 ±/- 6.6%"}, {"measurement": "Mean Half-life (fast)", "setting": "[14]; other cell line", "value": 0.52, "unit": "h"}, {"measurement": "Mean Half-life (slow)", "setting": "[14]; other cell line", "value": "1,626 min"}, {"measurement": "Percent Depletion 240 min", "setting": "[15]; 240 min", "value": "36 ±/- 5.4%"}, {"measurement": "Percent Depletion 24 hour", "setting": "[15]; 24 h", "value": "60 ±/- 4.5%"}, {"measurement": "Mean Half-life (slow)", "setting": "[15]; other cell line", "value": "~1,887 min"}, {"measurement": "Percent Depletion 240 min", "setting": "[16]; 240 min", "value": "42 ±/- 7.7%"}, {"measurement": "Percent Depletion 24 hour", "setting": "[16]; 24 h", "value": "55 ±/- 7.4%"}, {"measurement": "Mean Half-life (fast)", "setting": "[16]; other cell line", "value": 0.388, "unit": "h"}, {"measurement": "Mean Half-life (slow)", "setting": "[16]; other cell line", "value": "~9,684 min"}, {"measurement": "Percent Depletion 240 min", "setting": "[17]; 240 min", "value": "82 ±/- 2.9%"}, {"measurement": "Mean Half-life", "setting": "[17]; hepatocytes", "value": 1.44, "unit": "h"}]}, {"smiles": "CC(NC(C)(C)C)C(=O)c1cccc(Cl)c1", "note": "(stereo not drawn) [Bupropion, bupropion]", "values": [{"measurement": "Km at 24 h", "setting": "[18]", "value": "1260 ± 734", "unit": "µM"}, {"measurement": "Km at 24 h", "setting": "[19]", "value": "4.79 ± 5.48", "unit": "µM"}, {"measurement": "Vmax CYP2B6", "setting": "[20]", "value": "0.0422 ± 0.0119"}, {"measurement": "Km at 24 h", "setting": "[21]", "value": "1910 ± 1050", "unit": "µM"}]}, {"smiles": "Cc1ncc2n1-c1ccc(Cl)cc1C(c1ccccc1F)=NC2", "note": "[Midazolam, midazolam]", "values": [{"measurement": "Vmax CYP3A4/5", "setting": "[22]; [27]", "value": "0.0177 ± 0.000912"}, {"measurement": "Km at 24 h", "setting": "[22]; human, HepG2 cells", "value": "0.969 ± 0.268", "unit": "µM"}, {"measurement": "Vmax CYP3A4/5", "setting": "[23]; PHH, 30 min, Michaelis-Menten fit", "value": "187 ± 8.35"}, {"measurement": "Km at 30 min", "setting": "[23]; human", "value": "10.7 ± 1.34", "unit": "µM"}]}, {"smiles": "COc1ccc2[nH]c([S+]([O-])Cc3ncc(C)c(OC)c3C)nc2c1", "note": "(stereo not drawn) [OMP, omeprazole]", "values": [{"measurement": "induction of CYP1A2 luminescence", "setting": "[13]; OMP 100 μM, Tox21 cell lines", "value": "only marginal increased luminescence"}]}, {"smiles": "CCOc1ccc(NC(C)=O)cc1", "note": "[Phenacetin]", "values": [{"measurement": "Vmax CYP1A2", "setting": "[24]; [27]", "value": "0.320 ± 0.0234"}, {"measurement": "Km at 24 h", "setting": "[24]; human, HepG2 cells", "value": "38.4 ± 11.8", "unit": "µM"}, {"measurement": "Vmax CYP1A2", "setting": "[25]; C3H10T1/2, 24 h, Michaelis-Menten fit", "value": "0.168 ± 0.0393"}, {"measurement": "Km at 24 h", "setting": "[25]; mouse, C3H10T1/2 cells", "value": "247 ± 111", "unit": "µM"}]}, {"smiles": "CC(C)(c1ccc(O)cc1)c1ccc(O)cc1", "note": "[bisphenol A]", "values": [{"measurement": "depletion", "setting": "[26]; after 5 days incubations with 10 μM exposure", "value": 4, "unit": "%"}, {"measurement": "Km", "setting": "[26]; read-out: apparent Km for sulfotransferase activity", "value": 74, "unit": "µM"}]}]}
